Patent US11584709B2, “Multitarget drug for treating diseases in mammals” (“PHARMENTERPRISES EURASIA” LIMITED LIABILITY COMPANY, priority 2017, dated 2023)

Columns and labels:
[1] = molecular target: T1, bradykinin receptors B1 (BRDKB1) (Homo sapiens, UniProt P46663); experiment: Activity of bradykinin receptor BRDKB1, intracellular calcium, CHO cells; type: cell-based; details: antagonist, LysdesArg9-BK agonist (3 nM)
T1 construct: expressed in transfected cells; host or cells: CHO cells
T1 sequence (P46663 1-353): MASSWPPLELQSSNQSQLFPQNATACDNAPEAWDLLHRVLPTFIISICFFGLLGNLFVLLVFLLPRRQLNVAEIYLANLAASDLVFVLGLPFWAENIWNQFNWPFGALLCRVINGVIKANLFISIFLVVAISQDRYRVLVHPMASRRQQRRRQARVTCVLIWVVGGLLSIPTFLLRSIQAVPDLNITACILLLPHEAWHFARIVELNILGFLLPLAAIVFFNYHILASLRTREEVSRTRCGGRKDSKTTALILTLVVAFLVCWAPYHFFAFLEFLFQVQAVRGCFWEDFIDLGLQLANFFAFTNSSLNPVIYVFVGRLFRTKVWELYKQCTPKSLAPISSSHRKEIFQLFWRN
Method: Compound 1 was dissolved in DMSO to a concentration of 100 mM; then a stock solution was serially diluted with DMSO. The maximum starting concentration of the substance is 100 μM. The effect was determined at 5 concentrations of the tested compounds, each concentration was studied twice. CHO cells expressing bradykinin receptors B1 were used in the experiment, these cells, after preincubation with a LysdesArg9-BK agonist (3 nM), were incubated with the test compound. The activity of receptors was determined according to the intracellular calcium concentration by fluorescence spectroscopy (Eur J Pharmacol. 2000 Mar. 24; 392(1-2):1-9).

[2] = Stability in blood plasma, guinea pig; type: in vitro ADME; details: for Content, % from the initial, Mean (n = 2): guinea pig blood plasma, 1 μM, 37° C.
Method: (§1) Compound 1 at a concentration of 1 μM was incubated for 24 hours in the blood plasma of human and various animal species (rats, mice, guinea pigs, rabbits, horses, dogs, bull, pygmy hogs) at 37° C. Aliquots were taken at time points of 0, 0.25, 1, 2, 4, 8 and 24 hours. In the case of blood plasma of rabbits and monkeys, Compound 1 was incubated for 4 hours, and aliquots were taken at time points 0, 0.25, 1, 4. After the protein precipitation with acetonitrile, samples were analyzed by HPLC-MS/MS to determine the concentration of Compound 1. Verapamil was used as a stable control.

[3] = test system: diarrhea induced by castor oil; experiment: Mouse model of diarrhea induced by castor oil; type: in vivo, Balb/c mice
Method: Balb/c mice, which starved for 24 hours, were given castor oil intragastrically. Then the animals were encaged into individual cages with a bottom covered with white paper, and time before the onset of diarrhea was noted. The observation time is 4 hours (J Pharm Pharmacol. 2015 February; 67(2):244-54).

[4] = Stability in blood plasma, rabbit; type: in vitro ADME; details: for Content, % from the initial, Mean (n = 2): rabbit blood plasma, 1 μM, 37° C.
Method: as §1

[5] = test system: motility of the gastrointestinal tract; experiment: Model of irritable bowel syndrome: motility of the gastrointestinal tract (activated carbon); type: in vivo, nonlinear male mice
Method: The effect on the motility of the gastrointestinal tract was studied on a model of irritable bowel syndrome in nonlinear male mice weighing 24-30 g. The animals were intragastrically injected with a solution of activated carbon (50 mg/ml, in a volume of 10 ml/kg) and the speed (in minutes) of the movement of activated coal through the intestines of animals. The compounds under study were intragastrically administered once 1 hour before the introduction of activated carbon. Drotaverine (6.7 mg/kg), Buscopan (3 mg/kg) and Trimedat (33 mg/kg) were used as reference drugs.

[6] = molecular target: T2, human recombinant cathepsin S (Homo sapiens, UniProt P25774); experiment: Effect on the enzymatic activity of cathepsin S; type: biochemical; details: inhibitor; preincubated 15 minutes at 37° C.; substrate Z-Phe-Arg-AMC (6 μM)
T2 construct: host or cells: E. coli
T2 sequence (P25774 115-331): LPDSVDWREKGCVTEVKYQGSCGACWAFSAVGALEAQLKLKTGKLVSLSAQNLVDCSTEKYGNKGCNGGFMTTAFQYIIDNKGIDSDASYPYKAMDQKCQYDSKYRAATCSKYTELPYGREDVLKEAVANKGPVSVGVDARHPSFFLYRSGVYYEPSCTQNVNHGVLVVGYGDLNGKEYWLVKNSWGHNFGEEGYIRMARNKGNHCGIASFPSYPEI
Method: Compound 1 was dissolved in DMSO to a concentration of 100 mM; then a stock solution was serially diluted with DMSO. The maximum starting concentration of the substance is 100 μM. The effect was determined at 5 concentrations of the tested compounds, each concentration was studied twice. A human recombinant cathepsin S, expressed in E. coli was used in the experiment. Test compounds were preincubated for 15 minutes at 37° C. with an enzyme whose activity was determined by the rate of transformation of the substrate Z-Phe-Arg-AMC (6 μM) by the fluorescence spectroscopy (Protein Sci. 1996 April; 5(4):789-91).

[7] = Stability in blood plasma, mouse; type: in vitro ADME; details: for Content, % from the initial, Mean (n = 2): mouse blood plasma, 1 μM, 37° C.
Method: as §1

O=C(Cc1ccc(O)cc1)N[C@@H](Cc1ccccc1)C(=O)OCc1ccccc1 [Compound 1, benzyl (2S)-2-[2-(4-hydroxyphenyl)acetamido]-3-phenylpropanoate]
IC50 [1]: 3.7 µM
hydrolysis in the blood plasma (in words) ([2]; blood plasma of guinea pigs, after 15 minutes): almost completely hydrolyzed
Content, % from the initial, Mean (n = 2) ([2]; 0 hour): 100%
Content, % from the initial, Mean (n = 2) ([2]; 0.25 hour): 0.00%
Content, % from the initial, Mean (n = 2) ([2]; 1 hour): 0.00%
Content, % from the initial, Mean (n = 2) ([2]; 2 hour): 0.00%
Content, % from the initial, Mean (n = 2) ([2]; 4 hour): 0.00%
Content, % from the initial, Mean (n = 2) ([2]; 8 hour): 0.00%
Content, % from the initial, Mean (n = 2) ([2]; 24 hour): 0.00%
The time of onset of diarrhea ([3]; 50 mg/kg, M ± m, n = 10, observation 4 hours): 42.00 ± 3.43& min
increase of the time to the onset of diarrhea ([3]; summary of Table 6): 2 times
hydrolysis in the blood plasma (in words) ([4]; blood plasma of rabbits, after 15 minutes): almost completely hydrolyzed
Content, % from the initial, Mean (n = 2) ([4]; 0 hour): 100%
Content, % from the initial, Mean (n = 2) ([4]; 0.25 hour): 0.00%
Content, % from the initial, Mean (n = 2) ([4]; 1 hour): 0.00%
Content, % from the initial, Mean (n = 2) ([4]; 4 hour): 0.00%
The evacuation speed of activated carbon ([5]; 0.5 mg/kg once intragastrically 1 hour before activated carbon): 89.45 ± 1.9 min
The evacuation speed of activated carbon ([5]; 1.5 mg/kg once intragastrically 1 hour before activated carbon): 104.25 ± 5.49 min
The evacuation speed of activated carbon ([5]; 5 mg/kg once intragastrically 1 hour before activated carbon): 107.67 ± 3.07 min
The evacuation speed of activated carbon ([5]; 10 mg/kg once intragastrically 1 hour before activated carbon): 126.6 ± 3.66 min
The evacuation speed of activated carbon ([5]; 15 mg/kg once intragastrically 1 hour before activated carbon): 123.13 ± 5.27 min
The evacuation speed of activated carbon ([5]; 50 mg/kg once intragastrically 1 hour before activated carbon): 129.13 ± 3.19 min
The evacuation speed of activated carbon ([5]; 150 mg/kg once intragastrically 1 hour before activated carbon): 135.63 ± 2.87 min
increase of the evacuation time of activated carbon ([5]; summary of table 7): 2 times
IC50 [6]: 6.7 µM
hydrolysis in the blood plasma (in words) ([7]; blood plasma of mice, after 15 minutes): almost completely hydrolyzed
Content, % from the initial, Mean (n = 2) ([7]; 0 hour): 100%
Content, % from the initial, Mean (n = 2) ([7]; 0.25 hour): 0.00%
Content, % from the initial, Mean (n = 2) ([7]; 1 hour): 0.00%
Content, % from the initial, Mean (n = 2) ([7]; 2 hour): 0.00%
Content, % from the initial, Mean (n = 2) ([7]; 4 hour): 0.00%
Content, % from the initial, Mean (n = 2) ([7]; 8 hour): 0.00%
Content, % from the initial, Mean (n = 2) ([7]; 24 hour): 0.00%
